Data as given in US10428087B2, “Pyrimidinones as PI3K inhibitors” (Incyte Corporation, priority 2009, dated 2019).
Where a name gives a salt, the structure may show the parent alone.

Legend:
B cells = test: B cell proliferation assay (Example B1); assay type: cell-based; conditions: B-cell; purified human B cells, anti-human IgM, [3H]-thymidine
Description: To acquire B cells, human PBMC were isolated from the peripheral blood of normal, drug free donors by standard density gradient centrifugation on Ficoll-Hypague (GE Healthcare, Piscataway, N.J.) and incubated with anti-CD19 microbeads (Miltenyi Biotech, Auburn, Calif.). The B cells were then purified by positive immunosorting using an autoMacs (Miltenyi Biotech) according to the manufacturer's instruction.
The purified B cells (2×10^5/well/200 μL) were cultured in 96-well ultra-low binding plates (Corning, Corning, N.Y.) in RPMI1640, 10% FBS and goat F(ab′)2 anti-human IgM ([…]) (Invitrogen, Carlsbad, Calif.), in the presence of different amount of test compounds, […] [^3H]-thymidine (1 μCi/well) (PerkinElmer, Boston, Mass.) in PBS was then added to the B cell cultures for an additional 12 hrs before the incorporated radioactivity was separated by filtration with water through GF/B filters (Packard Bioscience, Meriden, Conn.) and measured by liquid scintillation counting with a TopCount (Packard Bioscience). […] See Table 2 for data related to compounds of the invention.

[1] = tested on: Pfeiffer cell line (diffuse large B cell lymphoma); test: Pfeiffer cell proliferation assay (Example B2); assay type: cell-based; conditions: Homo sapiens, Pfeiffer, Pfeiffer cells, [3H]-thymidine
Description: Pfeiffer cell line (diffuse large B cell lymphoma) was purchased from ATCC (Manassas, Va.) and maintained in the culture medium recommended (RPMI and 10% FBS). To measure the anti-proliferation activity of the PI3Kδ submittals, the Pfeiffer cells were plated with the culture medium (2×10^3 cells/well/per 200 μl) into 96-well ultra-low binding plates (Corning, Corning, N.Y.), in the presence or absence of a concentration range of test compounds. After 3-4 days, [^3H]-thymidine (1 μCi/well) (PerkinElmer, Boston, Mass.) in PBS was then added to the cell culture for an additional 12 hrs before the incorporated radioactivity was separated by filtration with water through GF/B filters (Packard Bioscience, Meridenj, Conn.) and measured by liquid scintillation counting with a TopCount (Packard Bioscience). See Table 3 for data related to compounds of the invention.

IC50 [1] | SMILES | IC50 (B cells)
< 50 nM | CCC(Nc1ncnc2[nH]cnc12)c1nc2cccc(C)n2c(=O)c1-c1ccccc1 (centres unmarked) [Example 2, 6-methyl-3-phenyl-2-[1-(9H-purin-6-ylamino)propyl]-4H-pyrido[1,2-a]pyrimidin-4-one] | 100 to 500 nM
100 to 500 nM | CCC(Nc1ncnc2[nH]cnc12)c1nc2cccc(C)n2c(=O)c1-c1cccc(F)c1 (centres unmarked) [Example 4, 3-(3-fluorophenyl)-6-methyl-2-[1-(9H-purin-6-ylamino)propyl]-4H-pyrido[1,2-a]pyrimidin-4-one] | < 50 nM
< 50 nM | Cc1cccc2nc(C(C)Nc3nc(N)nc4[nH]cnc34)c(-c3ccccc3Cl)c(=O)n12 (centres unmarked) [Example 58, 2-{1-[(2-Amino-9H-purin-6-yl)amino]ethyl}-3-(2-chlorophenyl)-6-methyl-4H-pyrido[1,2-a]pyrimidin-4-one trifluoroacetic acid salt] | –
100 to 500 nM | Cc1cccc2nc(C(C)Nc3ncnc4[nH]cnc34)c(-c3ccccc3F)c(=O)n12 (centres unmarked) [Example 59, 3-(2-Fluorophenyl)-6-methyl-2-[1-(9H-purin-6-ylamino)ethyl]-4H-pyrido[1,2-a]pyrimidin-4-one trifluoroacetic acid salt] | –
100 to 500 nM | Cc1ccccc1-c1c(C(C)Nc2ncnc3[nH]cnc23)nc2cccc(C)n2c1=O (centres unmarked) [Example 63, 6-Methyl-3-(2-methylphenyl)-2-[1-(9H-purin-6-ylamino)ethyl]-4H-pyrido[1,2-a]pyrimidin-4-one trifluoroacetic acid salt] | –
50 to 100 nM | Cc1cccc2nc(C(C)Nc3ncnc4[nH]cnc34)c(-c3cc(F)ccc3F)c(=O)n12 (centres unmarked) [Example 67, 3-(2,5-Difluorophenyl)-6-methyl-2-[1-(9H-purin-6-ylamino)ethyl]-4H-pyrido[1,2-a]pyrimidin-4-one trifluoroacetic acid salt] | –
500 to 1000 nM | Cc1cccc2nc(C(C)Nc3ncnc4[nH]cnc34)c(-c3ccc(F)c(F)c3)c(=O)n12 (centres unmarked) [Example 68, 3-(3,4-Difluorophenyl)-6-methyl-2-[1-(9H-purin-6-ylamino)ethyl]-4H-pyrido[1,2-a]pyrimidin-4-one trifluoroacetic acid salt] | –
50 to 100 nM | Cc1cccc2nc(C(C)Nc3ncnc4[nH]cnc34)c(-c3cc(F)cc(F)c3)c(=O)n12 (centres unmarked) [Example 69, 3-(3,5-Difluorophenyl)-6-methyl-2-[1-(9H-purin-6-ylamino)ethyl]-4H-pyrido[1,2-a]pyrimidin-4-one trifluoroacetic acid salt] | –
100 to 500 nM | CC(Nc1nc(N)nc2[nH]cnc12)c1nc2ccccn2c(=O)c1-c1cc(F)cc(F)c1 (centres unmarked) [Example 80, 2-{1-[(2-Amino-9H-purin-6-yl)amino]ethyl}-3-(3,5-difluorophenyl)-4H-pyrido[1,2-a]pyrimidin-4-one trifluoroacetic acid salt] | –
100 to 500 nM | Cc1cccc2nc(C(C)Nc3nc(N)nc4[nH]cnc34)c(-c3cccc(C#N)c3)c(=O)n12 (centres unmarked) [Example 84, 3-(2-{1-[(2-Amino-9H-purin-6-yl)amino]ethyl}-6-methyl-4-oxo-4H-pyrido[1,2-a]pyrimidin-3-yl)benzonitrile trifluoroacetic acid salt] | –

The next lines start with the molecule.

SMILES | IC50 [1] | IC50 (B cells)
Cc1cccc2nc(C(C)Nc3ncnc4[nH]cnc34)c(-c3cccc(F)c3)c(=O)n12 (single isomer, unassigned) [Example 71, 3-(3-Fluorophenyl)-6-methyl-2-[1-(9H-purin-6-ylamino)ethyl]-4H-pyrido[1,2-a]pyrimidin-4-one trifluoroacetic acid salt] | – | < 50 nM
Cc1cccc2nc(C(C)n3cnc4c(N)ncnc43)c(-c3ccccc3)c(=O)n12 (centres unmarked) [Example 1, 2-[1-(6-amino-9H-purin-9-yl)ethyl]-6-methyl-3-phenyl-4H-pyrido[1,2-a]pyrimidin-4-one] | 100 to 500 nM | < 50 nM
CCC(Nc1ncnc2[nH]cnc12)c1nc2cccc(C)n2c(=O)c1-c1cncc(F)c1 (centres unmarked) [Example 3, 3-(5-fluoropyridin-3-yl)-6-methyl-2-[1-(9H-purin-6-ylamino)propyl]-4H-pyrido[1,2-a]pyrimidin-4-one] | 100 to 500 nM | < 50 nM
CCC(Nc1ncnc2[nH]cnc12)c1nc2cccc(C)n2c(=O)c1-c1cc(F)cc(F)c1 (centres unmarked) [Example 5, 3-(3,5-difluorophenyl)-6-methyl-2-[1-(9H-purin-6-ylamino)propyl]-4H-pyrido[1,2-a]pyrimidin-4-one] | 50 to 100 nM | < 50 nM
CCC(Nc1ncnc2[nH]cnc12)c1nc2cccc(C)n2c(=O)c1-c1cccnc1F (centres unmarked) [Example 6, 3-(2-fluoropyridin-3-yl)-6-methyl-2-[1-(9H-purin-6-ylamino)propyl]-4H-pyrido[1,2-a]pyrimidin-4-one] | 100 to 500 nM | 50 to 100 nM
CCC(Nc1ncnc2[nH]cnc12)c1nc2cccc(C)n2c(=O)c1-c1cn[nH]c1 (centres unmarked) [Example 7, 6-methyl-2-[1-(9H-purin-6-ylamino)propyl]-3-(1H-pyrazol-4-yl)-4H-pyrido[1,2-a]pyrimidin-4-one] | 500 to 1000 nM | > 500 nM
Cc1csc2nc(C(C)Nc3nc(N)nc4[nH]cnc34)c(-c3cc(F)cc(F)c3)c(=O)n12 (centres unmarked) [Example 13, 7-{1-[(2-amino-9H-purin-6-yl)amino]ethyl}-6-(3,5-difluorophenyl)-3-methyl-5H-[1,3]thiazolo[3,2-a]pyrimidin-5-one] | – | < 50 nM
Cc1csc2nc([C@H](C)Nc3ncnc4[nH]cnc34)c(-c3cccc(F)c3)c(=O)n12 [Example 15, (S)-7-(1-(9H-purin-6-ylamino)ethyl)-6-(3-fluorophenyl)-3-methyl-5H-thiazolo[3,2-a]pyrimidin-5-one] | – | < 50 nM
Cc1cccc2nc(C(C)Nc3ncnc4[nH]cnc34)c(-c3ccccc3Cl)c(=O)n12 (centres unmarked) [Example 57, 3-(2-Chlorophenyl)-6-methyl-2-[1-(9H-purin-6-ylamino)ethyl]-4H-pyrido[1,2-a]pyrimidin-4-one trifluoroacetic acid salt] | 50 to 100 nM | –
Cc1cccc2nc(C(C)Nc3nc(N)nc4[nH]cnc34)c(-c3ccccc3F)c(=O)n12 (centres unmarked) [Example 60, 2-{1-[(2-Amino-9H-purin-6-yl)amino]ethyl}-3-(2-fluorophenyl)-6-methyl-4H-pyrido[1,2-a]pyrimidin-4-one trifluoroacetic acid salt] | 50 to 100 nM | –
Cc1cccc2nc(C(C)Nc3nc(N)nc4[nH]cnc34)c(-c3ccc(C#N)cc3)c(=O)n12 (centres unmarked) [Example 62, 4-(2-{1-[(2-Amino-9H-purin-6-yl)amino]ethyl}-6-methyl-4-oxo-4H-pyrido[1,2-a]pyrimidin-3-yl)benzonitrile trifluoroacetic acid salt] | 500 to 1000 nM | –
Cc1ccc(-c2c(C(C)Nc3ncnc4[nH]cnc34)nc3cccc(C)n3c2=O)cc1 (centres unmarked) [Example 64, 6-Methyl-3-(4-methylphenyl)-2-[1-(9H-purin-6-ylamino)ethyl]-4H-pyrido[1,2-a]pyrimidin-4-one trifluoroacetic acid salt] | 50 to 100 nM | –
COc1cccc(-c2c(C(C)Nc3ncnc4[nH]cnc34)nc3cccc(C)n3c2=O)c1 (centres unmarked) [Example 65, 3-(3-Methoxyphenyl)-6-methyl-2-[1-(9H-purin-6-ylamino)ethyl]-4H-pyrido[1,2-a]pyrimidin-4-one trifluoroacetic acid salt] | 50 to 100 nM | –
Cc1cccc2nc(C(C)Nc3ncnc4[nH]cnc34)c(-c3cccc(F)c3F)c(=O)n12 (centres unmarked) [Example 66, 3-(2,3-Difluorophenyl)-6-methyl-2-[1-(9H-purin-6-ylamino)ethyl]-4H-pyrido[1,2-a]pyrimidin-4-one trifluoroacetic acid salt] | 100 to 500 nM | –
CCc1cccc2nc(C(C)Nc3ncnc4[nH]cnc34)c(-c3cc(F)cc(F)c3)c(=O)n12 (centres unmarked) [Example 76, 3-(3,5-Difluorophenyl)-6-ethyl-2-[1-(9H-purin-6-ylamino)ethyl]-4H-pyrido[1,2-a]pyrimidin-4-one trifluoroacetic acid salt] | 100 to 500 nM | –
CCc1cccc2nc(C(C)Nc3nc(N)nc4[nH]cnc34)c(-c3cc(F)cc(F)c3)c(=O)n12 (centres unmarked) [Example 77, 2-{1-[(2-Amino-9H-purin-6-yl)amino]ethyl}-3-(3,5-difluorophenyl)-6-ethyl-4H-pyrido[1,2-a]pyrimidin-4-one trifluoroacetic acid salt] | < 50 nM | –
CCc1cccc2nc(C(C)Nc3ncnc4[nH]cnc34)c(-c3ccc(F)cc3)c(=O)n12 (centres unmarked) [Example 78, 6-Ethyl-3-(4-fluorophenyl)-2-[1-(9H-purin-6-ylamino)ethyl]-4H-pyrido[1,2-a]pyrimidin-4-one trifluoroacetic acid salt] | 100 to 500 nM | –
Cc1cccc2nc(C(C)Nc3ncnc4[nH]cnc34)c(-c3cccc(C#N)c3)c(=O)n12 (centres unmarked) [Example 83, 3-{6-Methyl-4-oxo-2-[1-(9H-purin-6-ylamino)ethyl]-4H-pyrido[1,2-a]pyrimidin-3-yl}benzonitrile trifluoroacetic acid salt] | 100 to 500 nM | –
